The assay addresses T1, Chk1 (Homo sapiens, UniProt O14757).
T1 construct: purchased Upstate Biotechnology
T1 sequence (O14757 1-476): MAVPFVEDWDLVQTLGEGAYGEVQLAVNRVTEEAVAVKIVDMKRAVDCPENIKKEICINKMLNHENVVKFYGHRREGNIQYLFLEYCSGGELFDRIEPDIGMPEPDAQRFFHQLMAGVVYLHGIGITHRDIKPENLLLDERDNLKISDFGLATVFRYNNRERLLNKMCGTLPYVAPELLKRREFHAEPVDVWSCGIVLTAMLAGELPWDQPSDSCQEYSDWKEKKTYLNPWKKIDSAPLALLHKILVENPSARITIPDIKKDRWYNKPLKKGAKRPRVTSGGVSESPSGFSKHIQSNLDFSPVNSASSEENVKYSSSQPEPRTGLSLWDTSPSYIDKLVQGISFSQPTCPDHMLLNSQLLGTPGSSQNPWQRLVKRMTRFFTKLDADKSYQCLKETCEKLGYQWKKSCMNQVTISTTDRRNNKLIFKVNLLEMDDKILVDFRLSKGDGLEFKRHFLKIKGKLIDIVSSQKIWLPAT
Kind of assay: Chk1 kinase assay: incorporation of γ-33P ATP into immobilized myelin basic protein. The conditions noted are these: Table 11; Chk1 only; read-out: Chk1 IC50. It counts as biochemical. A digest of the protocol:
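Enzyme activity is measured as γ-33P transfer from ATP onto immobilized MBP over 1 h at room temperature, with Chk1 at 10 nM/10 μM unlabeled ATP and Chk2 at 20 nM/30 μM unlabeled ATP. Compounds are tested in 1% DMSO.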

Molecules are shown by their SMILES. pIC50: −log10 of the molar value.

For the compound `CCN1CC[C@H](NC(=O)c2nc(-c3cccc(C(=O)N[C@@H]4c5ccccc5C[C@@H]4O)c3)cnc2N)C1` [Example 731, 3-amino-N-[(3S)-1-ethylpyrrolidin-3-yl]-6-[3-({[(1R,2S)-2-hydroxy-2,3-dihydro-1H-inden-1-yl]amino}carbonyl)phenyl]pyrazine-2-carboxamide], the pIC50 is 6.00 to 7.30. On to `CCN1CCCC(c2nnc(-c3nc(-c4cccc(CO)c4)cnc3N)[nH]2)C1` (centres unmarked) [Example 732, (3-{5-amino-6-[5-(1-ethylpiperidin-3-yl)-4H-1,2,4-triazol-3-yl]pyrazin-2-yl}phenyl)methanol], for which the pIC50 was 5.00 to 6.00. The figure for `CCN1CCCC(c2nnc(-c3nc(-c4cccc(CN[C@H]5CCc6ccccc65)c4)cnc3N)[nH]2)C1` (stereo partly drawn) [Example 733, 5-(3-{[(1S)-2,3-dihydro-1H-inden-1-ylamino]methyl}phenyl)-3-[5-(1-ethylpiperidin-3-yl)-4H-1,2,4-triazol-3-yl]pyrazin-2-amine] is 6.00 to 7.30; for `CCn1nc(-c2nc(-c3cccc(C(=O)N[C@@H]4CCc5ccccc54)c3)cnc2N)nc1C1CCCNC1` (stereo partly drawn) [Example 734, 3-[5-amino-6-(1-ethyl-5-piperidin-3-yl-1H-1,2,4-triazol-3-yl)pyrazin-2-yl]-N-[(1R)-2,3-dihydro-1H-inden-1-yl]benzamide] it is 6.00 to 7.30.

Turning to `Cn1nc(-c2nc(-c3cccc(C(=O)N[C@H]4CCc5ccccc54)c3)cnc2N)nc1C1CCCNC1` (stereo partly drawn) [Example 735, 3-(5-amino-6-(1-methyl-5-piperidin-3-yl-1H-1,2,4-triazol-3-yl)pyrazin-2-yl]-N-[(1S)-2,3-dihydro-1H-inden-1-yl]benzamide], the pIC50 was 6.00 to 7.30. With `CN1CCCC(c2n[nH]c(-c3nc(-c4cccc(CO)c4)cnc3N)n2)C1` (centres unmarked) [Example 736, (3-{5-amino-6-[3-(1-methylpiperidin-3-yl)-1H-1,2,4-triazol-5-yl]pyrazin-2-yl}phenyl)methanol] the figure was 5.00 to 6.00.

In the case of `CN1CCCC(c2n[nH]c(-c3nc(-c4cccc(CN[C@H]5CCc6ccccc65)c4)cnc3N)n2)C1` (stereo partly drawn) [Example 737, 5-(3-{[(1S)-2,3-dihydro-1H-inden-1-ylamino]methyl}phenyl)-3-[3-(1-methylpiperidin-3-yl)-1H-1,2,4-triazol-5-yl]pyrazin-2-amine], the pIC50 is 6.00 to 7.30.

On to `COc1ccc(CNC(=O)c2cccc(-c3cnc(N)c(C(=O)N[C@H]4CCN(C(=O)OC(C)(C)C)C4)n3)c2)cc1` [Example 738, 1,1-dimethylethyl (3S)-3-{[(3-amino-6-{3-[({[4-(methyloxy)phenyl]methyl}amino)carbonyl]phenyl}pyrazin-2-yl)carbonyl]amino}pyrrolidine-1-carboxylate], for which the negative logarithm of the IC50 (pIC50) is 6.00 to 7.30.

`CC(C)(C)OC(=O)N1CC[C@H](NC(=O)c2nc(-c3cccc(C(=O)NCc4ccc(OC(F)(F)F)cc4)c3)cnc2N)C1` [Example 739, 1,1-dimethylethyl (3S)-3-({[3-amino-6-(3-{[({4-[(trifluoromethyl)oxy]phenyl}methyl)amino]carbonyl}phenyl)pyrazin-2-yl]carbonyl}amino)pyrrolidine-1-carboxylate]: the pIC50 was 6.00 to 7.30. With `CC(C)(C)OC(=O)N1CC[C@H](NC(=O)c2nc(-c3cccc(C(=O)NCc4c(F)cccc4Cl)c3)cnc2N)C1` [Example 740, 1,1-dimethylethyl (3S)-3-[({3-amino-6-[3-({[(2-chloro-6-fluorophenyl)methyl]amino}carbonyl)phenyl]pyrazin-2-yl}carbonyl)amino]pyrrolidine-1-carboxylate] the figure was 5.00 to 6.00; with `CSc1ccc(CNC(=O)c2cccc(-c3cnc(N)c(C(=O)N[C@H]4CCN(C(=O)OC(C)(C)C)C4)n3)c2)cc1` [Example 741, 1,1-dimethylethyl (3S)-3-{[(3-amino-6-{3-[({[4-(methylthio)phenyl]methyl}amino)carbonyl]phenyl}pyrazin-2-yl)carbonyl]amino}pyrrolidine-1-carboxylate], 5.00 to 6.00; with `CC(C)(C)OC(=O)N1CC[C@H](NC(=O)c2nc(-c3cccc(C(=O)NC4Cc5ccccc5C4)c3)cnc2N)C1` [Example 742, 1,1-dimethylethyl (3S)-3-{[(3-amino-6-{3-[(2,3-dihydro-1H-inden-2-ylamino)carbonyl]phenyl}pyrazin-2-yl)carbonyl]amino}pyrrolidine-1-carboxylate], 6.00 to 7.30. The figure for `COc1ccc(CNC(=O)c2cccc(-c3cnc(N)c(C(=O)N[C@H]4CCNC4)n3)c2)cc1` [Example 743, 3-amino-6-{3-[({[4-(methyloxy)phenyl]methyl}amino)carbonyl]phenyl}-N-[(3S)-pyrrolidin-3-yl]pyrazine-2-carboxamide] is 6.00 to 7.30. The figure for `Nc1ncc(-c2cccc(C(=O)NCc3ccc(OC(F)(F)F)cc3)c2)nc1C(=O)N[C@H]1CCNC1` [Example 744, 3-amino-N-[(3S)-pyrrolidin-3-yl]-6-(3-{[({4-[(trifluoromethyl)oxy]phenyl}methyl)amino]carbonyl}phenyl)pyrazine-2-carboxamide] is > 7.30; for `Nc1ncc(-c2cccc(C(=O)NC3Cc4ccccc4C3)c2)nc1C(=O)N[C@H]1CCNC1` [Example 745, 3-amino-6-{3-[(2,3-dihydro-1H-inden-2-ylamino)carbonyl]phenyl}-N-[(3S)-pyrrolidin-3-yl]pyrazine-2-carboxamide] it is 6.00 to 7.30; for `Nc1ncc(-c2cccc(C(=O)NCc3c(F)cccc3Cl)c2)nc1C(=O)N[C@H]1CCNC1` [Example 746, 3-amino-6-[3-({[(2-chloro-6-fluorophenyl)methyl]amino}carbonyl)phenyl]-N-[(3S)-pyrrolidin-3-yl]pyrazine-2-carboxamide] it is 6.00 to 7.30. Turning to `CSc1ccc(CNC(=O)c2cccc(-c3cnc(N)c(C(=O)N[C@H]4CCNC4)n3)c2)cc1` [Example 747, 3-amino-6-{3-[({[4-(methylthio)phenyl]methyl}amino)carbonyl]phenyl}-N-[(3S)-pyrrolidin-3-yl]pyrazine-2-carboxamide], the negative-log IC50 (pIC50) is > 7.30. The figure for `N=C(NNc1ccncc1)c1nc(-c2cccc(C(=O)N[C@@H]3CCc4ccccc43)c2)cnc1N` [Example 748, 3-{5-amino-6-[imino(2-pyridin-4-ylhydrazino)methyl]pyrazin-2-yl}-N-[(1R)-2,3-dihydro-1H-inden-1-yl]benzamide] is 5.00 to 6.00. With `CCn1nc(-c2nc(-c3cccc(C(=O)N[C@H]4CCc5ccccc54)c3)cnc2N)nc1[C@@H]1CCCN(C(=O)OCc2ccccc2)C1` [Example 749, phenylmethyl (3R)-3-{3-[3-amino-6-(3-{[(1S)-2,3-dihydro-1H-inden-1-ylamino]carbonyl}phenyl)pyrazin-2-yl]-1-ethyl-1H-1,2,4-triazol-5-yl}piperidine-1-carboxylate] the figure was ≤ 5.00; with `CNC(=O)c1nc(-c2cccc([C@H](C)N[C@H]3CCc4ccccc43)c2)cnc1N` [Example 750, 3-amino-6-(3-{(1S)-1-[(1S)-2,3-dihydro-1H-inden-1-ylamino]ethyl}phenyl)-N-methylpyrazine-2-carboxamide], 6.00 to 7.30; with `Nc1ncc(-c2cccc(C(=O)N[C@@H]3c4ccccc4C[C@@H]3O)c2)nc1C(=O)NCCc1c[nH]cn1` [Example 751, 3-amino-6-[3-({[(1R,2S)-2-hydroxy-2,3-dihydro-1H-inden-1-yl]amino}carbonyl)phenyl]-N-[2-(1H-imidazol-4-yl)ethyl]pyrazine-2-carboxamide], 6.00 to 7.30. With `CC(C)(C)OC(=O)N1CC[C@@H](CNC(=O)c2nc(-c3cccc(C(=O)N[C@H]4CCc5ccccc54)c3)cnc2N)C1` [Example 752, 1,1-dimethylethyl (3S)-3-[({[3-amino-6-(3-{[(1S)-2,3-dihydro-1H-inden-1-ylamino]carbonyl}phenyl)pyrazin-2-yl]carbonyl}amino)methyl]pyrrolidine-1-carboxylate] the figure was ≤ 5.00. As to `Nc1ncc(-c2cccc(C(=O)N[C@H]3CCc4ccccc43)c2)nc1C(=O)NC[C@@H]1CCNC1` [Example 753, 3-amino-6-(3-{[(1S)-2,3-dihydro-1H-inden-1-ylamino]carbonyl}phenyl)-N-[(3R)-pyrrolidin-3-ylmethyl]pyrazine-2-carboxamide], the negative logarithm of the IC50 (pIC50) was > 7.30. The figure for `Cn1nc(-c2nc(-c3cccc(C(=O)N[C@H]4CCc5ccccc54)c3)cnc2N)nc1[C@@H]1CCCN(C(=O)OCc2ccccc2)C1` [Example 754, phenylmethyl (3R)-3-{3-[3-amino-6-(3-{[(1S)-2,3-dihydro-1H-inden-1-ylamino]carbonyl}phenyl)pyrazin-2-yl]-1-methyl-1H-1,2,4-triazol-5-yl}piperidine-1-carboxylate] is 5.00 to 6.00. Take `Nc1ncc(-c2cccc(C(=O)N[C@H]3CCc4ccccc43)c2)nc1-c1nnc([C@H]2CCCNC2)[nH]1` [Example 755, 3-(5-amino-6-{5-[(3S)-piperidin-3-yl]-4H-1,2,4-triazol-3-yl}pyrazin-2-yl)-N-[(1S)-2,3-dihydro-1H-inden-1-yl]benzamide]: the pIC50 was > 7.30.

Turning to `CC(C)(C)OC(=O)N1CC[C@H](NC(=O)c2nc(-c3cccc(C(=O)NCc4ccccn4)c3)cnc2N)C1` [Example 757, 1,1-dimethylethyl (3S)-3-({[3-amino-6-(3-{[(pyridin-2-ylmethyl)amino]carbonyl}phenyl)pyrazin-2-yl]carbonyl}amino)pyrrolidine-1-carboxylate], the negative logarithm of the IC50 (pIC50) is 5.00 to 6.00.

One may read the pIC50 as the negative decadic logarithm of the IC50, by convention in mol/L.

These data come from patent US7704995B2 (Exelixis, Inc., priority 2003, dated 2010).
